Measurements: patent US4370474A, “11-Deoxy-carminomycin compounds” (Farmitalia Carlo Erba S.p.A., priority 1978, dated 1983)
Counter-ions that a name gives are not always drawn. Like-named read-outs stand apart in the source and are kept apart here.

Assays:
HeLa cells = assay: Effect on HeLa cells viability in vitro; format: cell-based; settings: Homo sapiens, read-out: Effect of HeLa cells viability in vitro ID50
Procedure: (§1) The new antibiotics W, Y and Z have been tested against HeLa cells in vitro (time of exposure to the drugs: 24 hours), and on L 1210 and P 388 leukemia in mice in comparison with daunorubicin.
(a) HeLa cells were exposed to the drugs for 24 hrs, then plated.

P 388 leukemia = assay: Antitumor activity on P 388 leukemia in mice; format: in vivo; settings: for P-388 Toxic deaths: evaluated on macroscopic findings
Procedure: as §1
(§2) (b) Mice were treated i.p. on day 1 after tumor cell inoculation.
(§3) (c) Evaluated on the basis of macroscopic findings.

L 1210 leukemia = assay: Antitumor activity on L 1210 leukemia in mice; format: in vivo; settings: for L-1210 Toxic deaths: evaluated on macroscopic findings
Procedure: as §1, §2, §3

Solubility = format: physicochemical; settings: aglycone from acid hydrolysis
[1] = HeLa cells exposed to the drugs for 24 hrs, then plated
[2] = 1.0 mg/kg i.p. on day 1 after tumor cell inoculation
[3] = 1.2 mg/kg i.p. on day 1 after tumor cell inoculation
[4] = 1.9 mg/kg i.p. on day 1 after tumor cell inoculation
[5] = 2.9 mg/kg i.p. on day 1 after tumor cell inoculation
[6] = 4.4 mg/kg i.p. on day 1 after tumor cell inoculation
[7] = 6.6 mg/kg i.p. on day 1 after tumor cell inoculation

C[C@@H]1O[C@@H](O[C@H]2C[C@](O)(C(=O)CO)Cc3cc4c(c(O)c32)C(=O)c2c(O)cccc2C4=O)C[C@H](N)[C@@H]1O [Antibiotic W.HCl]
IC50 (HeLa cells; [1]): 8.8 ng/mL | P-388 Toxic deaths (P 388 leukemia; 1.0 mg/kg i.p. on day 1): 0/10 | P-388 T/C (P 388 leukemia; [2]): 159% | P-388 Toxic deaths (P 388 leukemia; 1.5 mg/kg i.p. on day 1): 0/20 | P-388 T/C (P 388 leukemia; 1.5 mg/kg i.p. on day 1 after tumor cell inoculation): 172% | P-388 Toxic deaths (P 388 leukemia; 2.25 mg/kg i.p. on day 1): 0/20 | P-388 T/C (P 388 leukemia; 2.25 mg/kg i.p. on day 1 after tumor cell inoculation): 163% | P-388 Toxic deaths (P 388 leukemia; 3.4 mg/kg i.p. on day 1): 0/10 | P-388 T/C (P 388 leukemia; 3.4 mg/kg i.p. on day 1 after tumor cell inoculation): 190% | P-388 Toxic deaths (P 388 leukemia; 5.0 mg/kg i.p. on day 1): 1/9 | P-388 T/C (P 388 leukemia; 5.0 mg/kg i.p. on day 1 after tumor cell inoculation): 204%

CC(=O)[C@]1(O)Cc2cc3c(c(O)c2[C@@H](O[C@H]2C[C@H](N)[C@H](O)[C@H](C)O2)C1)C(=O)c1c(O)cccc1C3=O [Antibiotic Y.HCl]
IC50 (HeLa cells; [1]): 9.6 ng/mL | L-1210 T/C (L 1210 leukemia; 0.8 mg/kg i.p. on day 1 after tumor cell inoculation): 111% | L-1210 T/C (L 1210 leukemia; [3]): 128% | L-1210 T/C (L 1210 leukemia; [4]): 122% | L-1210 Toxic deaths (L 1210 leukemia; 2.9 mg/kg i.p. on day 1): 8/10 | L-1210 T/C (L 1210 leukemia; [5]): 111% | P-388 T/C (P 388 leukemia; [3]): 145% | P-388 T/C (P 388 leukemia; [4]): 159%

CC[C@]1(O)Cc2cc3c(c(O)c2[C@@H](O[C@H]2C[C@H](N)[C@H](O)[C@H](C)O2)C1)C(=O)c1c(O)cccc1C3=O [Antibiotic Z.HCl]
IC50 (HeLa cells; [1]): 15 ng/mL | L-1210 T/C (L 1210 leukemia; [5]): 125% | L-1210 Toxic deaths (L 1210 leukemia; 4.4 mg/kg i.p. on day 1): 2/10 | L-1210 T/C (L 1210 leukemia; [6]): 131% | L-1210 Toxic deaths (L 1210 leukemia; 6.6 mg/kg i.p. on day 1): 5/10 | L-1210 T/C (L 1210 leukemia; [7]): 137% | P-388 T/C (P 388 leukemia; [2]): 140% | P-388 T/C (P 388 leukemia; 2.0 mg/kg i.p. on day 1 after tumor cell inoculation): 140% | P-388 Toxic deaths (P 388 leukemia; 4.4 mg/kg i.p. on day 1): 7/8 | P-388 T/C (P 388 leukemia; [6]): 100%

COc1cccc2c1C(=O)c1c(O)c3c(c(O)c1C2=O)C[C@@](O)(C(C)=O)C[C@@H]3O[C@H]1C[C@H](N)[C@H](O)[C@H](C)O1 [Daunorubicin.HCl, daunorubicin, reference compound]
IC50 (HeLa cells; HeLa, 24 h): 7.5 ng/mL | L-1210 T/C (L 1210 leukemia; [5]): 144-150% | L-1210 Toxic deaths (L 1210 leukemia; 4.4 mg/kg i.p. on day 1): 1/20 | L-1210 T/C (L 1210 leukemia; [6]): 140-162% | L-1210 Toxic deaths (L 1210 leukemia; 6.6 mg/kg i.p. on day 1): 3/19 | L-1210 T/C (L 1210 leukemia; [7]): 144-162% | P-388 Toxic deaths (P 388 leukemia; 2.9 mg/kg i.p. on day 1): 2/8 | P-388 T/C (P 388 leukemia; [5]): 170% | P-388 Toxic deaths (P 388 leukemia; 4.4 mg/kg i.p. on day 1): 6/8 | P-388 T/C (P 388 leukemia; [6]): 175% | P-388 Toxic deaths (P 388 leukemia; 6.6 mg/kg i.p. on day 1): 7/8 | P-388 T/C (P 388 leukemia; [7]): 160%

CC(=O)[C@]1(O)Cc2cc3c(c(O)c2[C@@H](O)C1)C(=O)c1c(O)cccc1C3=O [aglycone of the antibiotic Y]
solubility in water (Solubility): water insoluble
